Measurements reported in ChEMBL document CHEMBL4417631, “Oral peptide inhibitors of interleukin-23 receptor and their use to treat inflammatory bowel diseases” (2017).
*1 amine or outer side, *2 acyl side, *3 side chain or, on linkers, in order; H or OH if unused. Where a SMILES comes first, the peptide text is derived from it. Bridges are numbered along the chain shown (N, C = ends). [ ]: non-standard residue; d: D form. Abu(4-yl) = O=C([C@H](CC[*:3])N[*:1])[*:2]; Pen = CC(C)(S)[C@H](N)C(=O)O; hLeu = CC(C)CC[C@H](N)C(=O)O

Key:
[1] = Half life in simulated intestinal fluid at 20 uM by LC-MS/MS analysis; format: ADME
Interleukin-23 receptor [2] = molecular target: T1, Interleukin-23 receptor (Homo sapiens, UniProt Q5VWK5); experiment: Inhibition of interleukin-23 binding to human interleukin-23 receptor incubated for 2 hrs by competitive binding ELISA
T1 sequence (Q5VWK5 whole entry): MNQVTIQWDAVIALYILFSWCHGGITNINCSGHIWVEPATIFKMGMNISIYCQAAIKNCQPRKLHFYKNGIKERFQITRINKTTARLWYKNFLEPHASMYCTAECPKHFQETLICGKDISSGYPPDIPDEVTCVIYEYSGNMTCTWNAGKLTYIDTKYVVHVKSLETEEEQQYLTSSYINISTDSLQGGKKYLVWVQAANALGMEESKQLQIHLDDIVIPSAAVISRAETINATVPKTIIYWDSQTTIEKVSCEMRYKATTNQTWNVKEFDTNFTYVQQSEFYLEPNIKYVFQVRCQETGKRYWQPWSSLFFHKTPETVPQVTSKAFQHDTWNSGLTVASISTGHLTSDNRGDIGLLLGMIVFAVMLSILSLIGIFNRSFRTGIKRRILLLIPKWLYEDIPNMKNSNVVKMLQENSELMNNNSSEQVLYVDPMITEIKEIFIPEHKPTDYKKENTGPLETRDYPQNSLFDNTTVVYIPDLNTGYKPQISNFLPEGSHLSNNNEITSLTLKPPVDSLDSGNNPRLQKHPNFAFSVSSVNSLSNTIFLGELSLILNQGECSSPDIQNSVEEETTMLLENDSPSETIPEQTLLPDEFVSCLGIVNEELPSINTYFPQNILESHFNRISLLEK

Interleukin-23 receptor [3] = molecular target: T1, Interleukin-23 receptor; experiment: Inhibition of interleukin-23 receptor in human DB cells assessed as reduction in IL-23-stimulated STAT3 phosphorylation incubated for 30 mins by HTRF assay; format: cell-based

Row | Structure (SMILES) | half-life at 20 µM [1] [h] | IC50 (Interleukin-23 receptor [2]) [nM] | IC50 (Interleukin-23 receptor [3]) [nM]
1 | CC(=O)N[C@H](C(=O)N[C@@H](CCC(N)=O)C(=O)N[C@H](C(=O)N[C@@H](Cc1c[nH]c2ccccc12)C(=O)N[C@@H](CCC(N)=O)C(=O)N[C@H](C(=O)N[C@@H](Cc1ccc(O)cc1)C(=O)N[C@@H](Cc1c[nH]c2ccccc12)C(=O)N[C@H](CC(N)=O)C(=O)N[C@@H](CCC(=O)O)C(=O)N[C@@H](CC(N)=O)C(=O)NCC(N)=O)C(C)(C)S)[C@@H](C)O)C(C)(C)S | 3 to 6 | 1000 to 10000 | –
2 | COc1ccc(C[C@H](NC(=O)[C@@H]2CSCC[C@H](NC(C)=O)C(=O)N[C@@H](CCC(N)=O)C(=O)N[C@@H]([C@@H](C)O)C(=O)N[C@@H](Cc3c[nH]c4ccccc34)C(=O)N[C@@H](CCC(N)=O)C(=O)N2)C(=O)N[C@@H](Cc2ccc3ccccc3c2)C(=O)N[C@@H](CCCN)C(=O)N[C@@H](CCCCNC(C)=O)C(=O)N[C@@H](CC(N)=O)C(=O)NCC(N)=O)cc1 | > 6 | 100 to 1000 | –
3 | CC(=O)NCCCC[C@H](NC(=O)[C@](C)(CCCCN)NC(=O)[C@H](Cc1ccc2ccccc2c1)NC(=O)[C@H](Cc1c(C)cc(O)cc1C)NC(=O)[C@@H]1CSCC[C@H](NC(C)=O)C(=O)N[C@@H](CCC(N)=O)C(=O)N[C@@H]([C@@H](C)O)C(=O)N[C@@H](Cc2c[nH]c3ccccc23)C(=O)N[C@@H](CCC(N)=O)C(=O)N1)C(=O)N[C@@H](CC(N)=O)C(=O)NCC(N)=O | > 6 | > 1000 | –
4 | CCCCCCCC[C@H](NC(=O)[C@H](Cc1ccc(OC)cc1)NC(=O)[C@@H]1CSCC[C@H](NC(C)=O)C(=O)N[C@@H](CCC(N)=O)C(=O)N[C@@H]([C@@H](C)O)C(=O)N[C@@H](Cc2c[nH]c3ccccc23)C(=O)N[C@@H](CCC(N)=O)C(=O)N1)C(=O)N[C@@](C)(CCCCN)C(=O)N[C@@H](CCCCNC(C)=O)C(=O)N[C@@H](CC(N)=O)C(=O)NCC(N)=O | 1 to 2 | 10000 | –
5 | CC(=O)N[C@@H](CS)C(=O)N[C@@H](CCC(N)=O)C(=O)N[C@H](C(=O)N[C@@H](Cc1c[nH]c2ccccc12)C(=O)N[C@@H](CCC(N)=O)C(=O)N[C@H](C(=O)N[C@@H](Cc1ccc(O)cc1)C(=O)N[C@@H](Cc1c[nH]c2ccccc12)C(=O)N[C@H](CC(N)=O)C(=O)N[C@@H](CCC(=O)O)C(=O)N[C@@H](CC(N)=O)C(=O)NCC(N)=O)C(C)(C)S)[C@@H](C)O | < 1 | 1000 to 10000 | –
6 | CC(=O)NC[C@H](NC(=O)[C@H](CCCN)NC(=O)[C@H](Cc1ccc2ccccc2c1)NC(=O)[C@H](Cc1ccc(OCCN)cc1)NC(=O)[C@@H]1CSCC[C@H](NC(C)=O)C(=O)N[C@@H](CCC(N)=O)C(=O)N[C@@H]([C@@H](C)O)C(=O)N[C@@H](Cc2c[nH]c3ccccc23)C(=O)N[C@@H](CCC(N)=O)C(=O)N1)C(=O)N[C@@H](CC(N)=O)C(=O)NCC(N)=O | < 1 | 25 to 100 | –
7 | CC(=O)N[C@H]1CCSC[C@@H](C(=O)N[C@@H](Cc2ccc(OCCN)cc2)C(=O)N[C@@H](Cc2c[nH]c3ccccc23)C(=O)N[C@@H](CCCN)C(=O)N[C@@H](CN)C(=O)N[C@@H](CC(N)=O)C(=O)NCC(N)=O)NC(=O)[C@H](CCC(N)=O)NC(=O)[C@H](Cc2c[nH]c3ccccc23)NC(=O)[C@H]([C@@H](C)O)NC(=O)[C@H](CCC(N)=O)NC1=O | < 1 | 100 to 1000 | –
8 | CC(=O)N[C@@H](CS)C(=O)N[C@@H](C)C(=O)N[C@@H](CC(=O)O)C(=O)N[C@@H](Cc1c[nH]c2ccccc12)C(=O)N[C@H](C(=O)N[C@@H](CS)C(=O)N[C@@H](Cc1ccc(O)cc1)C(=O)N[C@@H](Cc1c[nH]c2ccccc12)C(=O)N[C@H](Cc1cnc[nH]1)C(=O)N[C@H](C(=O)N[C@@H](Cc1ccccc1)C(=O)NCC(=O)NCCOCC(=O)N[C@H](CCCCN)C(N)=O)[C@@H](C)O)C(C)C | – | 100 to 1000 | 100 to 1000
9 | CC(=O)N[C@H](C(=O)N[C@@H](CC(N)=O)C(=O)N[C@H](C(=O)N[C@@H](Cc1c[nH]c2ccccc12)C(=O)N[C@@H](CCC(N)=O)C(=O)N[C@H](C(=O)N[C@@H](Cc1ccc(OCCN)cc1)C(=O)N[C@@H](Cc1ccc2ccccc2c1)C(=O)N[C@@](C)(CCCCN)C(=O)N[C@@H](CCC(=O)O)C(=O)N[C@@H](CC(N)=O)C(=O)NCC(N)=O)C(C)(C)S)[C@@H](C)O)C(C)(C)S | – | < 10 | < 10

Next, values leading:

Row | half-life at 20 µM [1] [h] | IC50 (Interleukin-23 receptor [2]) [nM] | IC50 (Interleukin-23 receptor [3]) [nM] | Structure (SMILES)
10 | < 1 | 10000 | – | CCCCCCCC[C@H](NC(=O)[C@@H]1CSCC[C@H](NC(C)=O)C(=O)N[C@@H](CCC(N)=O)C(=O)N[C@@H]([C@@H](C)O)C(=O)N[C@@H](Cc2c[nH]c3ccccc23)C(=O)N[C@@H](CCC(N)=O)C(=O)N1)C(=O)N[C@@H](Cc1ccc2ccccc2c1)C(=O)N[C@@](C)(CCCCN)C(=O)N[C@@H](CCCCNC(C)=O)C(=O)N[C@@H](CC(N)=O)C(=O)NCC(N)=O
11 | 2 to 3 | > 30000 | – | CC(=O)N[C@H](C(=O)N[C@@H](CCC(N)=O)C(=O)N[C@H](C(=O)N[C@@H](Cc1c[nH]c2ccccc12)C(=O)N[C@@H](CCC(N)=O)C(=O)N[C@H](C(=O)N[C@@H](Cc1ccc(O)cc1)C(=O)N[C@@H](Cc1c[nH]c2ccccc12)C(=O)N(C)[C@@H](CCCNC(=N)N)C(=O)N[C@@H](CCC(=O)O)C(=O)N[C@@H](CC(N)=O)C(=O)NCC(N)=O)C(C)(C)S)[C@@H](C)O)C(C)(C)S
12 | 3 to 6 | > 1000 | – | COc1ccc(CC[C@H](NC(=O)[C@@H]2CSCC[C@H](NC(C)=O)C(=O)N[C@@H](CCC(N)=O)C(=O)N[C@@H]([C@@H](C)O)C(=O)N[C@@H](Cc3c[nH]c4ccccc34)C(=O)N[C@@H](CCC(N)=O)C(=O)N2)C(=O)N[C@@H](Cc2ccc3ccccc3c2)C(=O)N[C@@](C)(CCCCN)C(=O)N[C@@H](CCCCNC(C)=O)C(=O)N[C@@H](CC(N)=O)C(=O)NCC(N)=O)cc1OC
13 | 1 to 2 | > 1000 | – | CC(=O)N[C@H]1CCSC[C@H](C(=O)N[C@@H](Cc2ccc(O)cc2)C(=O)N[C@@H](Cc2c[nH]c3ccccc23)C(=O)N[C@@H](CCC(C)C)C(=O)N[C@@H](CCC(=O)O)C(=O)N[C@@H](CC(N)=O)C(=O)NCC(N)=O)NC(=O)[C@H](CCC(N)=O)NC(=O)[C@H](Cc2c[nH]c3ccccc23)NC(=O)[C@H]([C@@H](C)O)NC(=O)[C@H](CCC(N)=O)NC1=O
14 | < 1 | > 1000 | – | CC(=O)N[C@H]1CCSC(C)(C)[C@@H](C(=O)N[C@@H](Cc2ccc(O)cc2)C(=O)N[C@@H](Cc2c[nH]c3ccccc23)C(=O)N[C@@H](CCC(C)C)C(=O)N[C@@H](CCC(=O)O)C(=O)N[C@@H](CC(N)=O)C(=O)NCC(N)=O)NC(=O)[C@H](CCC(N)=O)NC(=O)[C@H](Cc2c[nH]c3ccccc23)NC(=O)[C@H]([C@@H](C)O)NC(=O)[C@H](CCC(N)=O)NC1=O (Ac-[Abu(4-yl)]QTWQ[Pen]YW[hLeu]ENG-NH2; thioether 1-6)
15 | < 1 | 100 to 1000 | – | CC(=O)NC[C@H](NC(=O)[C@H](CCCN)NC(=O)[C@H](Cc1c[nH]c2ccccc12)NC(=O)[C@H](Cc1ccc(OCCN)cc1)NC(=O)[C@@H]1CSCC[C@H](NC(C)=O)C(=O)N[C@@H](CCC(N)=O)C(=O)N[C@@H]([C@@H](C)O)C(=O)N[C@@H](Cc2c[nH]c3ccccc23)C(=O)N[C@@H](CCC(N)=O)C(=O)N1)C(=O)N[C@@H](CC(N)=O)C(=O)NCC(N)=O
16 | – | > 10000 | > 1000 | CC(=O)N[C@@H](CS)C(=O)N[C@@H](CCC(N)=O)C(=O)N[C@H](C(=O)N[C@@H](Cc1c[nH]c2ccccc12)C(=O)N[C@@H](CCC(N)=O)C(=O)N[C@@H](CS)C(=O)N[C@@H](Cc1ccc(O)cc1)C(=O)N[C@@H](Cc1c[nH]c2ccccc12)C(=O)N[C@@H](CCC(C)C)C(=O)N[C@@H](CCC(=O)O)C(=O)N[C@@H](CC(N)=O)C(=O)NCC(=O)N[C@@H](CCCNC(=N)N)C(N)=O)[C@@H](C)O
